The text below walks through data of paper PMC5397615, “Rapid Identification and Isolation of Inhibitors of Rat Lens Aldose Reductase and Antioxidant in Maackia amurensis” (BioMed Research International, 2017).

For series [1], the target named is T1, rat lens aldose reductase (RLAR) (Rattus norvegicus, UniProt P07943).
T1 construct: Rat lens (RL) homogenate was prepared according to the modified method of Hayman and Kinoshita; from tissue; host or cells: lens of male Sprague-Dawley rats (homogenate supernatant, partially purified)
Briefly: Rat lens AR inhibitory activity assay. In kind it is biochemical. The note with it: isolated compounds; for IC50: read-out: RLAR inhibition IC50.

Series [2] concerns the target T2, rat lens AR (Rattus norvegicus, UniProt P07943).
T2 construct: Rat lens (RL) homogenate was prepared according to the modified method of Hayman and Kinoshita; from tissue; host or cells: lens of male Sprague-Dawley rats (homogenate supernatant, partially purified)
Briefly: HPLC microfractionation rat lens AR assay. In kind it is biochemical. Also noted: concentration or dose not given beside the values. The note with it: amount of efficacy in HPLC microfractionation (Table 3).

A short description of series [3]: ABTS-offline HPLC assay of the EtOAc fraction. The note with it: 254 nm; for Peak area change after ABTS (in words): EtOAc fraction spiked with ABTS solution, Figure 1(a); for Antioxidant quantitative reduction (%): amount of peak decrease in ABTS-offline HPLC.
A short description of series [4]: ABTS radical scavenging activity (TEAC assay). The note with it: for IC50: read-out: Antioxidant IC50.
Series [5] is described as follows: Partition coefficient (K) in two-phase HSCCC solvent systems. The class given is physicochemical.
Setting [6] is: n-Hexane-ethyl acetate-methanol-water 2.5 : 7.5 : 5 : 5 (v/v).
The mark [7] stands for this setting: n-Hexane-ethyl acetate-methanol-water 3 : 7 : 4.5 : 5.5 (v/v).
Where [8] appears, read: n-Hexane-ethyl acetate-methanol-water 4 : 6 : 2.5 : 7.5 (v/v).
The mark [9] stands for this setting: n-Hexane-ethyl acetate-methanol-water 4 : 6 : 3.5 : 5.5 (v/v).

With `O=C(/C=C/c1ccc(O)c(O)c1)O[C@@H]1C[C@](O)(C(=O)O)C[C@@H](O)[C@H]1O` [Compound 1, chlorogenic acid], the IC50 in series [1] was found to be 4.2 ± 3.2 µM. Moreover, in series [2], the “RLAR inhibition, Inhibition (%)” value is listed as 51.02%.

Consider `COc1cc(/C=C/C(=O)O)ccc1O` [Compound 3, trans-ferulic acid], for which, in series [1], the “RLAR activity (in words)” value was “did not have RLAR activity” and the half-maximal inhibitory concentration (IC50) was > 500 µM. For the same molecule, in series [3], the “Peak area change after ABTS (in words)” value is given as “peak area reductions” and the “Antioxidant quantitative reduction (%)” value turned out to be 20.06%. For the same molecule, the “RLAR inhibition, Inhibition (%)” value in series [2] worked out at 5.21%. In addition, the IC50 in series [4] (isolated compounds) was 13.51 ± 0.04 µM.

Regarding `COc1c(O[C@@H]2O[C@H](CO)[C@@H](O)[C@H](O)[C@H]2O)cc2occ(-c3ccc(O)cc3)c(=O)c2c1O` [Compound 4, tectoridin], in series [1], the IC50 turned out to be 50.4 ± 2.17 µM. In addition, in series [3], the “Peak area change after ABTS (in words)” value was “slightly decreased” and the “Antioxidant quantitative reduction (%)” value was determined as 8.43%. In addition, the “RLAR inhibition, Inhibition (%)” value in series [2] was determined as 43.37%. In series [4] (isolated compounds), the “Antioxidant activity (in words)” value was “did not have antioxidant activity” and the IC50 is > 500 µM.

With `Oc1cc(O)cc(/C=C/c2ccc(O)c(O)c2)c1` [Compound 5, piceatannol], the “RLAR activity (in words)” value in series [1] was “did not have RLAR activity”. Moreover, the IC50 in series [1] is > 500 µM; in series [4] (isolated compounds) it was 6.73 ± 0.04 µM. The K values in series [5] (setting [6]) worked out at 0.37; in series [5] (setting [7]), 0.34; in series [5] (setting [8]) it was 3.91; in series [5] (setting [9]) it was 0.37. For the same molecule, the “Peak area change after ABTS (in words)” value in series [3] is “peak area reductions”. Further, the “Antioxidant quantitative reduction (%)” value in series [3] amounted to 34.68%.

As for `Oc1ccc(/C=C/c2cc(O)cc(O)c2)cc1` [Compound 6, resveratrol], the IC50 was 118 ± 3.12 µM in series [1] and 11.05 ± 0.04 µM in series [4] (isolated compounds). Besides, the K values was 9.56 in series [5] (n-Heptane-ethyl acetate-methanol-water 1 : 6 : 1 : 6 (v/v)); 0.57 in series [5] (setting [6]); 0.59 in series [5] (setting [7]); 4.62 in series [5] (setting [8]); 0.90 in series [5] (setting [9]). The “RLAR inhibition, Inhibition (%)” value in series [2] stood at 29.31%.

On to `O=c1c(-c2ccc(O)cc2)coc2cc(O)ccc12` [Compound 7, daidzein], for which the values for the IC50 in series [1] and in series [4] (isolated compounds) were 152 ± 2.91 µM and > 500 µM, respectively. The “Antioxidant quantitative reduction (%)” value in series [3] turned out to be 0.48%. Moreover, the “RLAR inhibition, Inhibition (%)” value in series [2] turned out to be 28.14%.

On to `O=c1c(-c2ccc(O)cc2)coc2cc(O)cc(O)c12` [Compound 8, genistein], for which the concentration for half-maximal inhibition (IC50) is 57.1 ± 3.23 µM in series [1] and > 500 µM in series [4] (isolated compounds). Moreover, the K values in series [5] (n-Hexane-ethyl acetate-methanol-water 1 : 3 : 1 : 3 (v/v)) was 35.34; in series [5] (setting [6]), 2.04; in series [5] (setting [7]), 2.52; in series [5] (setting [8]), 15.01; in series [5] (setting [9]), 3.73. For the same molecule, the “Antioxidant quantitative reduction (%)” value in series [3] is 2.24%. In addition, the “RLAR inhibition, Inhibition (%)” value in series [2] was determined as 38.54%.

As to `COc1ccc(-c2coc3cc(O)ccc3c2=O)cc1` [Compound 9, formononetin], the half-maximal inhibitory concentration (IC50) in series [1] was 69.2 ± 2.57 µM; in series [4] (isolated compounds) it was > 500 µM. Moreover, the K values was 0.33 in series [5] (setting [6]), 0.40 in series [5] (setting [7]), 3.39 in series [5] (setting [8]) and 0.39 in series [5] (setting [9]). Besides, the “Antioxidant quantitative reduction (%)” value in series [3] is 0.69%. Also, the “RLAR inhibition, Inhibition (%)” value in series [2] stood at 30.11%.

For the molecule `Cc1c(C)c2c(c(C)c1O)CCC(C)(C(=O)O)O2` (stereo not drawn) [Trolox, 6-hydroxy-2,5,7,8-tetrame-thylchroman-2-carboxylic acid, reference compound], in series [4] (concentration of 50% inhibition), the “Antioxidant IC50” value was 8.72 ± 0.01 mg/L. In addition, the “Antioxidant TEAC (Trolox equivalent antioxidant capacity)” value in series [4] (relative to Trolox = 1.00) stood at 1.00.

Usually IC50 stands for the concentration that gives 50% inhibition.
